{"source": "patent US20110217740A1", "about": "“METHODS, MICROORGANISMS, AND COMPOSITIONS FOR PLANT BIOMASS PROCESSING” (University of Georgia Research, priority 2008, published 2011)"}
{"system": "A. thermophilum", "experiment": "Sensitivity of A. thermophilum to selective agents", "type": "cell-based, Anaerocellum thermophilum", "conditions": "selective agent in growth medium", "procedure": "5× Base Salts: 140.00 g/L NaCl, 17.50 g/L, MgSO4.7H2O, 13.50 g/L MgCl2.6H2O, 1.65 g/L KCl, 1.25 g/L NH4Cl, 0.70 g/L CaCl2.2H2O. Liquid complex cellobiose (CC) media (pH 6.8): 200 mL/L 5× Base salts, 1 mL/L 1000× Trace minerals, 100 μL/L 100 mM Na2WO4*2H2O, 50 μL/L Resazurin (5 mg/mL), 5 mL/L 10% w/v Yeast Extract, 50 mL/L 10% w/v Casein hydrolysate, 35 mL/L 10% w/v Cellobiose, 0.5 g/L Cysteine, 0.5g Na2S, 1 g/L NaHCO3, 1 mL/L 1M K2HPO4 buffer. Solid complex cellobiose (CC) media: 1× media +1% phytagel solution (Sigma Chemical Company, St. Louis, Mo.). CC plates containing 5-fluoroorotic acid (5-FOA): to ensure complete 5-FOA solvation, 1M NaOH is dripped into the solution until a murky consistency is reached at around pH 10, cysteine is then used to lower the pH to 7, where the solution turns transparent. Simvastatin plates: solid complex cellobiose plates with the indicated amount of simvastatin added. A. thermophilum is sensitive to 8 millimolar (mM) 5-FOA, 30 mM hygromycin, 8 micromolar (μM) simvastatin, and 50 μM apramycin.", "units": {"concentration to which A. thermophilum is sensitive": "µM"}}
{"smiles": "O=C(O)c1[nH]c(=O)[nH]c(=O)c1F", "note": "[5-FOA, 5-fluoroorotic acid]", "concentration to which A. thermophilum is sensitive": 8000}
{"smiles": "CN[C@@H]1[C@@H](O[C@H]2O[C@H](CO)[C@@H](N)[C@H](O)[C@H]2O)OC2C[C@@H](N)[C@@H](O[C@H]3[C@H](O)[C@@H](O)[C@H](N)C[C@@H]3N)OC2[C@@H]1O", "note": "(stereo partly drawn) [apramycin]", "concentration to which A. thermophilum is sensitive": 50}
{"smiles": "CCC(C)(C)C(=O)O[C@H]1C[C@@H](C)C=C2C=C[C@H](C)[C@H](CC[C@@H]3C[C@@H](O)CC(=O)O3)[C@H]21", "note": "[simvastatin]", "concentration to which A. thermophilum is sensitive": 8}
